# Reference: US9682083B2, “Pyrrolo[2,3-D]pyrimidine derivatives, process for their preparation and their use as kinase inhibitors” (NERVIANO MEDICAL SCIENCES S.R.L., priority 2013, dated 2017)
# pIC50: −log10 of the molar value.
# Key:
# Format in all cases: cell-based
# [1] = tested on: A2780 ovarian carcinoma; test: In vitro cell proliferation assay (CellTiterGlo), A2780 control line; settings: Homo sapiens, antiproliferative activity, 72 hours exposure, non RET-dependent control cell line
# Experimental: (§1) In Vitro Cell Proliferation Assay
# (§2) To evaluate the antiproliferative activity of a compound of formula (I) the following human cell lines were used: A2780 ovarian carcinoma; TT and MZ-CRC-1 medullary thyroid carcinoma, harboring a mutated RET-C634W and RET-M918T receptor respectively; LC-2/ad human lung adenocarcinoma, harboring the CCDC6-RET fusion protein. Exponentially growing cells were seeded and incubated at 37° C. in a humidified 5% CO2 atmosphere using appropriate medium supplemented with 10% Fetal Bovine Serum. 24 hours following cell plating, scalar doses of the compounds dissolved in 0.1% DMSO were added to the medium and cells were exposed to drugs for either 72 hours (A2780) or 144 hours (TT, MZ-CRC-1 and LC-2/ad), according to their different proliferation rate. At the end of treatment, cell proliferation was determined by an intracellular ATP monitoring system (CellTiterGlo—Promega), following manufacturer's instructions, and using an Envision instrument (PerkinElmer) as reader. Data obtained from compound versus vehicle treated cells were compared using Assay Explorer (Symyx Technologies Inc) software. IC50 values were calculated using sigmoidal interpolation curve fitting.
# (§3) In the following Table A the antiproliferative activity of representative compounds of formula (I) on two medullary thyroid carcinoma cell lines expressing the aforementioned mutated forms of RET (TT and MZ-CRC-1) and on one lung adenocarcinoma cell line harboring the aforementioned fusion form of RET (LC-2/ad) is reported. As control, the antiproliferative activity of the same compounds on an unrelated non RET-dependent cell line (A2780) is reported. All these compounds show remarkable activity on RET-driven cellular models with respect to the unrelated ones.
# [2] = tested on: LC-2/ad human lung adenocarcinoma, harboring the CCDC6-RET fusion protein; test: In vitro cell proliferation assay (CellTiterGlo), LC-2/ad; settings: antiproliferative activity, 144 h exposure
# Experimental: as §1, §2, §3
# [3] = tested on: TT medullary thyroid carcinoma, harboring a mutated RET-C634W receptor; test: In vitro cell proliferation assay (CellTiterGlo), TT; settings: Homo sapiens, antiproliferative activity, 144 h exposure
# Experimental: as §1, §2, §3
# [4] = tested on: MZ-CRC-1 medullary thyroid carcinoma, harboring a mutated RET-M918T receptor; test: In vitro cell proliferation assay (CellTiterGlo), MZ-CRC-1; settings: Homo sapiens, antiproliferative activity, 144 h exposure
# Experimental: as §1, §2, §3
pIC50 [1],IC50 [2] [µM],IC50 [3] [µM],IC50 [4] [µM],SMILES
5.17,0.115,0.109,0.271,"Nc1ncnc2c1c(C#Cc1cccc(C(=O)NC3CC3)c1)cn2CCO [cmpd 37, 3-{[4-amino-7-(2-hydroxyethyl)-7H-pyrrolo[2,3-d]pyrimidin-5-yl]ethynyl}-N-cyclopropylbenzamide]"
5.34,0.241,0.035,0.264,"Cn1cc(C#Cc2cccc(C(=O)NC3CC3)c2)c2c(N)ncnc21 [cmpd 93, 3-[(4-amino-7-methyl-7H-pyrrolo[2,3-d]pyrimidin-5-yl)ethynyl]-N-cyclopropylbenzamide]"

# More lines, now with the values behind:
SMILES,pIC50 [1],IC50 [2] [µM],IC50 [3] [µM],IC50 [4] [µM]
"Nc1ncnc2c1c(C#Cc1cccc(C(=O)NC3CC3)c1)cn2CC(F)(F)F [cmpd 36, 3-{[4-amino-7-(2,2,2-trifluoroethyl)-7H-pyrrolo[2,3-d]pyrimidin-5-yl]ethynyl}-N-cyclopropylbenzamide]",5.76,0.058,0.053,0.166
"CC(C)n1cc(C#Cc2cccc(C(=O)NC3CC3)c2)c2c(N)ncnc21 [cmpd 40, 3-{[4-amino-7-(propan-2-yl)-7H-pyrrolo[2,3-d]pyrimidin-5-yl]ethynyl}-N-cyclopropylbenzamide]",5.71,0.033,0.022,0.049
"Cc1ccc(C(=O)NC2CC2)cc1C#Cc1cn(CC(F)(F)F)c2ncnc(N)c12 [cmpd 52, 3-{[4-amino-7-(2,2,2-trifluoroethyl)-7H-pyrrolo[2,3-d]pyrimidin-5-yl]ethynyl}-N-cyclopropyl-4-methylbenzamide]",5.41,0.107,0.1,0.201
"Nc1ncnc2c1c(C#Cc1cc(C(=O)NC3CC3)ccc1F)cn2CC(F)(F)F [cmpd 54, 3-{[4-amino-7-(2,2,2-trifluoroethyl)-7H-pyrrolo[2,3-d]pyrimidin-5-yl]ethynyl}-N-cyclopropyl-4-fluorobenzamide]",5.48,0.053,0.02,0.068
"Nc1ncnc2c1c(C#Cc1cc(F)cc(C(=O)NC3CC3)c1)cn2CC(F)(F)F [cmpd 59, 3-{[4-amino-7-(2,2,2-trifluoroethyl)-7H-pyrrolo[2,3-d]pyrimidin-5-yl]ethynyl}-N-cyclopropyl-5-fluorobenzamide]",5.67,0.048,0.036,0.04
